{"source": "patent US8975246B2", "about": "“Bile acid or bile salt fatty acid conjugates” (Galmed Research and Development Ltd., priority 2001, dated 2015)", "type_in_all_cases": "in vivo", "key": {"[1]": {"test_system": "Golden Syrian Male Hamsters", "assay": "Fasting blood glucose, hamsters on fatty liver diet (NIDDM model)", "conditions": "BAFAC 150 mg/kg/day by gavage, 3 weeks, vs saline", "experimental": "The effects of BAFACs on fasting blood glucose were tested in 3 animal species: Hamsters, Rats and Mice. The animals were kept on regular or high fat diets (as specified). In each group half of the animals received a daily BAFAC dose (150 mg/kg) dispersed in 0.5 ml of saline by gavage. The other half received similarly, by gavage, an equal volume of saline only. All animals were kept on a 12 hr day/night cycle at 22° C. throughout the experiment. They had access to water ad libidum.\nGolden Syrian male hamsters 4 weeks old (90-100 gm) were fed a fatty liver diet consisting of cholesterol (1%), palmitic acid (1.2%), butter (6%), lard (10%), and corn oil (2%) added (w/w) to their regular diet. Blood glucose was measured at sacrifice in the fasting state after 3 weeks of the trial. There were 5 control and 5 test animals.\nThe hamsters and rats on the high fat diets developed fatty liver (confirmed by chemical measurement of liver fat), a high fasting blood glucose, and represented models of NIDDM.\nICR male mice, 4 weeks old (approx. 20 gm) were fed a regular diet. Streptozotocin 200 mg/kg was injected i.p. on the first day of the experiment. (This induced damage to the islet cells of the pancreas and simulated IDDM). Fasting blood glucose was obtained from sacrificed animals after 16 days of the trial. There were 3 groups of 7 animals each. Controls—regular diet only. […]"}, "Inbred C57J/L mice": {"test_system": "Inbred C57J/L mice", "assay": "Liver lipid/protein ratio, mice on high fat lithogenic diet", "conditions": "BAFAC 150 mg/Kg daily by gavage, 5 weeks", "experimental": "Inbred C57J/L mice, 4 weeks old and weighing approx. 20 gm (Jackson Lab. Maine, USA) were used. They were fed for 5 weeks a high fat lithogenic diet consisting of: Cholesterol 1%, Cholic Acid 0.5%, lard 10%, butter 6%, palmitic acid 1.2% and corn oil 2% added (w/w) to their regular diet. In addition to the diet the animals were given daily, by gavage, either a BAFAC (150 mg/Kg) suspended in saline or an equal volume of saline only. The BAFACs were conjugates of cholic acid (at position 3) with either Palmitic Acid (C-16) or Arachidic Acid (C-20) or Behenic Acid (C-22) using an amide bond. The controls (n=5) received saline, the test animals received either the C-16 conjugate (n=5), the C-20 conjugate (n=5) or the C-22 conjugate (n=3). After 5 weeks, following an overnight fast, the animals were anesthetized using ketamine, the liver was removed, and the animals were sacrificed by ketamine overdose. A 0.5 gm sample of liver was homogenized in 5 ml of buffered saline. Liver lipids were extracted from the homogenate by the Folch method using chloroform:methanol (2:1, vol/vol). Half a ml of the homogenate were extracted in 5 ml of the Folch solution. After evaporation of the solvent the lipids were weighed and reevaporated several times until constant weight was obtained. The proteins were quantified in another aliquot of the homogenate according to the method of Bradford. (Bradford M. M., Annal Biochem. 1976, 72:248).\nThe lipid protein ratio (mg/mg) was calculated. The results for each group are given as means (+St. Dev.) The group values were: […]"}, "human patients [2]": {"test_system": "human patients", "assay": "Human study: change in adiponectin", "set-up": "Change in Adiponectin from Baseline, Mean / Change in Adiponectin from Baseline, Median / Change in Adiponectin from Baseline, Max: unit not given here", "conditions": "for Change in Adiponectin from Baseline, Max / Change in Adiponectin from Baseline, Mean / Change in Adiponectin from Baseline, Median / Change in Adiponectin from Baseline, Min: 3 months", "experimental": "(§1) The effects of BAFACs on disorders associated with Fatty liver, insulin resistance and altered glucose metabolism were tested on 60 human patients. Experiments were subdivided to 2 dosage regimens: Aramchol 300 mg daily (high dose) and 100 mg daily (low dose) respectively for a total period time of 3 months. The Aramchol:placebo ratio is of 2:1 for the low dose arm, and 1:1 for the high dose arms.\n(§2) The study period included a 3 month treatment period with Aramchol low dose, or Aramchol high dose, or placebo, and a one month follow-up period. Aramchol was given daily orally. During the treatment period, all patients attended periodic […] (at first month) and subsequently monthly study-center visits in order to assess safety and efficacy of the treatment.\n(§3) The results are shown using two known in the art principle statistical evaluation on, Intention-To-Treat (ITT) and Per Protocol (PP) populations. The ITT principle asserts that the effect of a treatment policy can be best assessed by evaluation on the basis of the intention to treat a subject (i.e. the planned treatment regimen) rather than the actual treatment given. It has the consequence that subjects allocated to a treatment group should be followed up, assessed and analyzed as members of that group irrespective of their compliance to the planned course of treatment. […] Compliance covers such considerations as exposure to treatment, availability of measurements and absence of major protocol violations."}, "human patients [3]": {"test_system": "human patients", "assay": "Human study: change in weight", "set-up": "Change in Weight, Mean / Change in Weight, Median / Change in Weight, Max: unit not given here", "conditions": "for Change in Weight, Max / Change in Weight, Mean / Change in Weight, Median / Change in Weight, Min: 3 months", "experimental": "as §1, §2, §3"}, "human patients [4]": {"test_system": "human patients", "assay": "Human study: safety", "conditions": "Aramchol at 300 and 100 mg/d oral, 3 months, vs placebo", "experimental": "as §1, §2\nNo changes in adverse events or in vital signs were observed between the groups."}}, "data": [{"smiles": "CCCCCCCCCCCCCCCCCCCC(=O)N[C@H]1CC[C@@]2(C)[C@@H](C1)C[C@@H](O)[C@@H]1[C@@H]2C[C@H](O)[C@]2(C)[C@@H]([C@H](C)CCC(=O)O)CC[C@@H]12", "note": "[Aramchol, 3β-arachidylamido-7α,12α-dihydroxy-5β-cholan-24-oic acid]", "values": [{"measurement": "fasting blood glucose", "setting": "[1]", "value": "markedly reduced"}, {"measurement": "lipid protein ratio in liver, mean (+St. Dev.)", "setting": "Inbred C57J/L mice", "value": "1.44 ± 1.18", "unit": "mg/mg"}, {"measurement": "Change in Adiponectin from Baseline, Max", "setting": "human patients [2]; Aramchol 100 mg/d oral, ITT", "value": 11.1}, {"measurement": "Change in Adiponectin from Baseline, Mean", "setting": "human patients [2]; Aramchol 100 mg/d oral, ITT", "value": "−3.4"}, {"measurement": "Change in Adiponectin from Baseline, Median", "setting": "human patients [2]; Aramchol 100 mg/d oral, ITT", "value": "−2.7"}, {"measurement": "Change in Adiponectin from Baseline, Min", "setting": "human patients [2]; Aramchol 100 mg/d oral, ITT", "value": "−46.3"}, {"measurement": "Change in Adiponectin from Baseline, Max", "setting": "human patients [2]; Aramchol 100 mg/d oral, PP", "value": 11.1}, {"measurement": "Change in Adiponectin from Baseline, Mean", "setting": "human patients [2]; Aramchol 100 mg/d oral, PP", "value": "−3.4"}, {"measurement": "Change in Adiponectin from Baseline, Median", "setting": "human patients [2]; Aramchol 100 mg/d oral, PP", "value": "−2.3"}, {"measurement": "Change in Adiponectin from Baseline, Min", "setting": "human patients [2]; Aramchol 100 mg/d oral, PP", "value": "−46.3"}, {"measurement": "Change in Adiponectin from Baseline, Max", "setting": "human patients [2]; Aramchol 300 mg/d oral, ITT", "value": 41.7}, {"measurement": "Change in Adiponectin from Baseline, Mean", "setting": "human patients [2]; Aramchol 300 mg/d oral, ITT", "value": 1.8}, {"measurement": "Change in Adiponectin from Baseline, Median", "setting": "human patients [2]; Aramchol 300 mg/d oral, ITT", "value": "−1.3"}, {"measurement": "Change in Adiponectin from Baseline, Min", "setting": "human patients [2]; Aramchol 300 mg/d oral, ITT", "value": "−28.0"}, {"measurement": "Change in Adiponectin from Baseline, Max", "setting": "human patients [2]; Aramchol 300 mg/d oral, PP", "value": 41.7}, {"measurement": "Change in Adiponectin from Baseline, Mean", "setting": "human patients [2]; Aramchol 300 mg/d oral, PP", "value": 1.8}, {"measurement": "Change in Adiponectin from Baseline, Median", "setting": "human patients [2]; Aramchol 300 mg/d oral, PP", "value": "−1.3"}, {"measurement": "Change in Adiponectin from Baseline, Min", "setting": "human patients [2]; Aramchol 300 mg/d oral, PP", "value": "−28.0"}, {"measurement": "levels of adiponectin (in words)", "setting": "human patients [2]; Aramchol 300 mg/d, tested subjects, Tables 5 and 6", "value": "increases the levels of adiponectin"}, {"measurement": "Change in Weight, Max", "setting": "human patients [3]; Aramchol 100 mg/d oral, ITT", "value": 4.00}, {"measurement": "Change in Weight, Mean", "setting": "human patients [3]; Aramchol 100 mg/d oral, ITT", "value": 0.18}, {"measurement": "Change in Weight, Median", "setting": "human patients [3]; Aramchol 100 mg/d oral, ITT", "value": 0.00}, {"measurement": "Change in Weight, Min", "setting": "human patients [3]; Aramchol 100 mg/d oral, ITT", "value": "−5.00"}, {"measurement": "Change in Weight, Max", "setting": "human patients [3]; Aramchol 100 mg/d oral, PP", "value": 4.00}, {"measurement": "Change in Weight, Mean", "setting": "human patients [3]; Aramchol 100 mg/d oral, PP", "value": 0.08}, {"measurement": "Change in Weight, Median", "setting": "human patients [3]; Aramchol 100 mg/d oral, PP", "value": 0.00}, {"measurement": "Change in Weight, Min", "setting": "human patients [3]; Aramchol 100 mg/d oral, PP", "value": "−5.00"}, {"measurement": "Change in Weight, Max", "setting": "human patients [3]; Aramchol 300 mg/d oral, ITT", "value": 3.50}, {"measurement": "Change in Weight, Mean", "setting": "human patients [3]; Aramchol 300 mg/d oral, ITT", "value": "−1.15"}, {"measurement": "Change in Weight, Median", "setting": "human patients [3]; Aramchol 300 mg/d oral, ITT", "value": "−1.25"}, {"measurement": "Change in Weight, Min", "setting": "human patients [3]; Aramchol 300 mg/d oral, ITT", "value": "−4.40"}, {"measurement": "Change in Weight, Max", "setting": "human patients [3]; Aramchol 300 mg/d oral, PP", "value": 3.50}, {"measurement": "Change in Weight, Mean", "setting": "human patients [3]; Aramchol 300 mg/d oral, PP", "value": "−1.15"}, {"measurement": "Change in Weight, Median", "setting": "human patients [3]; Aramchol 300 mg/d oral, PP", "value": "−1.25"}, {"measurement": "Change in Weight, Min", "setting": "human patients [3]; Aramchol 300 mg/d oral, PP", "value": "−4.40"}, {"measurement": "body weight (in words)", "setting": "human patients [3]; Aramchol 300 mg/d, tested subjects, Tables 9 and 10", "value": "reduces body weight"}, {"measurement": "Safety (adverse events, vital signs)", "setting": "human patients [4]", "value": "not associated with any safety concerns"}]}]}
